# Reference: ChEMBL document CHEMBL1201862, “PubChem BioAssay data set” (2004)
# Calls of active or inactive are those of the source.
# Columns and labels:
# [1] = target: Lysine-specific demethylase 4C (Homo sapiens, UniProt Q9H3R0); assay: GASC-1 (JMJD2C) histone demethylase inhibitors, dose response, biochemical, DELFIA europium, cherry-picked samples (AID 488835); assay type: functional
# [2] = target: G-protein coupled receptor 55 (Homo sapiens, UniProt Q9Y2T6); assay: GPR55 antagonists, SAR follow-up, counter-screen for GPR35 antagonist project, imaging, image-based (AID 2397); assay type: functional
# Sequence of G-protein coupled receptor 55 (Q9Y2T6 whole entry): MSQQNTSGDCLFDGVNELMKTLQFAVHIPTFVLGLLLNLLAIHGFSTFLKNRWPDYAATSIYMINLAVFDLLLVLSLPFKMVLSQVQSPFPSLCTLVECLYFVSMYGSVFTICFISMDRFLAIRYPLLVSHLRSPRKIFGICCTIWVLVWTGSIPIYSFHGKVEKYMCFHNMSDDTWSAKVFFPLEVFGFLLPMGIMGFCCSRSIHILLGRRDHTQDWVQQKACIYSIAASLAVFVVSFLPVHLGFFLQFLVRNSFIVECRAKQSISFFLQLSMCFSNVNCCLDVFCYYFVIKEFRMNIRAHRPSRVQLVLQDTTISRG
# [3] = target: Cytochrome P450 2C19 (Homo sapiens, UniProt P33261); assay: Cytochrome panel assay with activity outcomes. Panel member name: p450-cyp2c19 Compounds with AC50 equal or less than 10 uM are considered active; assay type: functional
# Sequence of Cytochrome P450 2C19 (P33261 whole entry): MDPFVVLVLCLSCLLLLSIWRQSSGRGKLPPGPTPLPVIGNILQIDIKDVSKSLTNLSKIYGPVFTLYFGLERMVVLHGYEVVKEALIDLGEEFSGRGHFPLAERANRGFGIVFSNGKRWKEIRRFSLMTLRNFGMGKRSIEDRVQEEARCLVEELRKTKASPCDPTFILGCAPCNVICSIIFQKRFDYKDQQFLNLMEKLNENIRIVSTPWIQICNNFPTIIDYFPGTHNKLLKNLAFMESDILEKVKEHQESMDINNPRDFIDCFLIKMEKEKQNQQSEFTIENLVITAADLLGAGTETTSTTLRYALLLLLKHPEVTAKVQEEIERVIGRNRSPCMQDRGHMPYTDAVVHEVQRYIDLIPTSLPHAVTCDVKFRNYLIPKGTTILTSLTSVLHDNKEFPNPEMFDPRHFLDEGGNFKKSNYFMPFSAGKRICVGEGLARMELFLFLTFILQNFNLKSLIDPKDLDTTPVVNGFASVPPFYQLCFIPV
# [4] = target: Cytochrome P450 2D6 (Homo sapiens, UniProt P10635);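 further: CYP2D6 member of a cytochrome P450 panel assay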
# Sequence of Cytochrome P450 2D6 (P10635 whole entry): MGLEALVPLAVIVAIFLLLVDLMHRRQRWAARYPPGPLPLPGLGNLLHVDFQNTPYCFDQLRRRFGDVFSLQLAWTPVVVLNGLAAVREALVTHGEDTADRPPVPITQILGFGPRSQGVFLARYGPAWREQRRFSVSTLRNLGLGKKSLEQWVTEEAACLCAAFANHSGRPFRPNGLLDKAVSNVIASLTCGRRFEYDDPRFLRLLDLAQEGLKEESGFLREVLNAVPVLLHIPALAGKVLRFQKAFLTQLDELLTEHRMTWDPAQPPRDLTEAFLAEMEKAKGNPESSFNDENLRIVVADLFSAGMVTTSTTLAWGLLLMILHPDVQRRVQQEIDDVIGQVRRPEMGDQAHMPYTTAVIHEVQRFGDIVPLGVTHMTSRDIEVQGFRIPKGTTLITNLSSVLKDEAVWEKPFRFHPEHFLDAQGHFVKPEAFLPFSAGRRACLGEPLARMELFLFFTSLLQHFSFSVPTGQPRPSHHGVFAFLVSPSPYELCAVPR
# [5] = target: T1, Cytochrome P450 1A2 (Homo sapiens, UniProt P05177);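 further: PubChem cytochrome P450 panel assay, CYP1A2 panel member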
# T1 sequence (P05177 whole entry): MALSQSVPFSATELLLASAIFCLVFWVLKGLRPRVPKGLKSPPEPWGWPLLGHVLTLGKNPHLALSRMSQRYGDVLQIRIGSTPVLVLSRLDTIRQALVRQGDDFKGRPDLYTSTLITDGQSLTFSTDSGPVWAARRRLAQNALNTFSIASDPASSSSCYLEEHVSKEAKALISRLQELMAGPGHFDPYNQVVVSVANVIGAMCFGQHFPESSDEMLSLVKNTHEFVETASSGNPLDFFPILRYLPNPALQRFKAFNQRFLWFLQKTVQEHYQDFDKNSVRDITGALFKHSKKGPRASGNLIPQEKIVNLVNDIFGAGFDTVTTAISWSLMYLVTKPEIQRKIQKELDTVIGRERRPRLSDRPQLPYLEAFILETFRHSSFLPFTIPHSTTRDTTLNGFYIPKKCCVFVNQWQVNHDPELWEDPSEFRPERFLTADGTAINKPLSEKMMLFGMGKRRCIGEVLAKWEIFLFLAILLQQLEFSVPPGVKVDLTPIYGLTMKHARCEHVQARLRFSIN
# [6] = target: Cytochrome P450 3A4 (Homo sapiens, UniProt P08684);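 further: CYP3A4 tested as one member of a cytochrome P450 panel screen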
# Sequence of Cytochrome P450 3A4 (P08684 whole entry): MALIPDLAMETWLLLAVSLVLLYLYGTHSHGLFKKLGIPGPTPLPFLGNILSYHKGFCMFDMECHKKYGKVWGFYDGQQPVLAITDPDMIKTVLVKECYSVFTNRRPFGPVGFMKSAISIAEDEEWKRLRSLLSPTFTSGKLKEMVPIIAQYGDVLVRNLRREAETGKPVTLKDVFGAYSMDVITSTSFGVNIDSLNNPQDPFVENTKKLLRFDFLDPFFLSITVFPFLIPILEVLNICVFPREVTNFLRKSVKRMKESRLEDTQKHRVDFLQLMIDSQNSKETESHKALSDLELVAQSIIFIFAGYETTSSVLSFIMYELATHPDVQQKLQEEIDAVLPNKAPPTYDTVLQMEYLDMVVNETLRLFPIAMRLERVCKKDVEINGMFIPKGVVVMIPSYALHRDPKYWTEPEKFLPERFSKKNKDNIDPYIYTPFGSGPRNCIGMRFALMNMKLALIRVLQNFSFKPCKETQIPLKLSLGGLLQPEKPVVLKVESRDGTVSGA
# [7] = target: Cytochrome P450 2C9 (Homo sapiens, UniProt P11712)
# Sequence of Cytochrome P450 2C9 (P11712 whole entry): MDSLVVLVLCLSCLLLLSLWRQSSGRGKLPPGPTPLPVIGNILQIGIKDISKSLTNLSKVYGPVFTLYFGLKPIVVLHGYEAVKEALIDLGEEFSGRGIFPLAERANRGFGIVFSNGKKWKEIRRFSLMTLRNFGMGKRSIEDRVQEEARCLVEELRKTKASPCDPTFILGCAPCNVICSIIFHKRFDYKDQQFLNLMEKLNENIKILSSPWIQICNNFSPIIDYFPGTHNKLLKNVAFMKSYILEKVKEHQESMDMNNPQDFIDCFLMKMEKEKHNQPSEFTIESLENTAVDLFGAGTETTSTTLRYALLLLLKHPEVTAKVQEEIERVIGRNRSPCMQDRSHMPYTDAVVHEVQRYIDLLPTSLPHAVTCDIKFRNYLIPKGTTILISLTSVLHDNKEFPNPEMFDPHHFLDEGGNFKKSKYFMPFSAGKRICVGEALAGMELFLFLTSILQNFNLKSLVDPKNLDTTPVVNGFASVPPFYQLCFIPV
# [8] = target: T2, Tyrosine-protein phosphatase non-receptor type 7 (Homo sapiens, UniProt P35236); assay type: functional
# T2 sequence (P35236 whole entry): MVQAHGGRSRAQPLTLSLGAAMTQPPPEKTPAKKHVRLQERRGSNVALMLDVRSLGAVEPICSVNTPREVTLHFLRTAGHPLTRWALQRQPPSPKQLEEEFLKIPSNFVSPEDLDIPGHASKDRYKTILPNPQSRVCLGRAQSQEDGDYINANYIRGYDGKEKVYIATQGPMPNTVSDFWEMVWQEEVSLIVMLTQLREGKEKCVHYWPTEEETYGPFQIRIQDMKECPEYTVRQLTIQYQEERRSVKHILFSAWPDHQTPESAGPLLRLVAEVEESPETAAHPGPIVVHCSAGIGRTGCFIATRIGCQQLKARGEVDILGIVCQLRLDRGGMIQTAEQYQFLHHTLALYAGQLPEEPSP
# [9] = target: T3, Tyrosine-protein phosphatase non-receptor type 22 (Homo sapiens, UniProt Q9Y2R2); assay type: functional
# T3 sequence (Q9Y2R2 whole entry): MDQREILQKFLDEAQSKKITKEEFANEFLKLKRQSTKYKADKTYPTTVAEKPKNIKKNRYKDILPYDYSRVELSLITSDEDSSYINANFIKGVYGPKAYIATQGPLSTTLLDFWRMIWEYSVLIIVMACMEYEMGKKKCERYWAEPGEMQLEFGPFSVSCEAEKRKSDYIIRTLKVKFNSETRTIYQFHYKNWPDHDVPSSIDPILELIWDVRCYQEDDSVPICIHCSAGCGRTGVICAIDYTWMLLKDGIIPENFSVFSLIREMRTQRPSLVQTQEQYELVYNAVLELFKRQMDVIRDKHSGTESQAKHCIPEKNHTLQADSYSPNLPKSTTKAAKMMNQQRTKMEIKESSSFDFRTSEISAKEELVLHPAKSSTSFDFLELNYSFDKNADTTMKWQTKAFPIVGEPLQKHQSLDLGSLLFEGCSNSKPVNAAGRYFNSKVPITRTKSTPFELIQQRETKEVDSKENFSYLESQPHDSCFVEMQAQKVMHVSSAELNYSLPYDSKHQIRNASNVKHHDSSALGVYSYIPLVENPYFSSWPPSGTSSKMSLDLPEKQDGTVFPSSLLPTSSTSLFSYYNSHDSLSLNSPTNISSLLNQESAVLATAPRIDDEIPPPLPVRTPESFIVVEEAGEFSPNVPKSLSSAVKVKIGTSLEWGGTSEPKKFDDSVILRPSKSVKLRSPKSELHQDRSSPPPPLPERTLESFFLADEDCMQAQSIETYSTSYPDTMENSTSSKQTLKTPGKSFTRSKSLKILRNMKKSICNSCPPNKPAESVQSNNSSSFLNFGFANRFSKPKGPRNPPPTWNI
# [10] = target: T3, Tyrosine-protein phosphatase non-receptor type 22; assay type: functional; remark: listed apart in the source
# Sequence of Lysine-specific demethylase 4C (Q9H3R0 whole entry): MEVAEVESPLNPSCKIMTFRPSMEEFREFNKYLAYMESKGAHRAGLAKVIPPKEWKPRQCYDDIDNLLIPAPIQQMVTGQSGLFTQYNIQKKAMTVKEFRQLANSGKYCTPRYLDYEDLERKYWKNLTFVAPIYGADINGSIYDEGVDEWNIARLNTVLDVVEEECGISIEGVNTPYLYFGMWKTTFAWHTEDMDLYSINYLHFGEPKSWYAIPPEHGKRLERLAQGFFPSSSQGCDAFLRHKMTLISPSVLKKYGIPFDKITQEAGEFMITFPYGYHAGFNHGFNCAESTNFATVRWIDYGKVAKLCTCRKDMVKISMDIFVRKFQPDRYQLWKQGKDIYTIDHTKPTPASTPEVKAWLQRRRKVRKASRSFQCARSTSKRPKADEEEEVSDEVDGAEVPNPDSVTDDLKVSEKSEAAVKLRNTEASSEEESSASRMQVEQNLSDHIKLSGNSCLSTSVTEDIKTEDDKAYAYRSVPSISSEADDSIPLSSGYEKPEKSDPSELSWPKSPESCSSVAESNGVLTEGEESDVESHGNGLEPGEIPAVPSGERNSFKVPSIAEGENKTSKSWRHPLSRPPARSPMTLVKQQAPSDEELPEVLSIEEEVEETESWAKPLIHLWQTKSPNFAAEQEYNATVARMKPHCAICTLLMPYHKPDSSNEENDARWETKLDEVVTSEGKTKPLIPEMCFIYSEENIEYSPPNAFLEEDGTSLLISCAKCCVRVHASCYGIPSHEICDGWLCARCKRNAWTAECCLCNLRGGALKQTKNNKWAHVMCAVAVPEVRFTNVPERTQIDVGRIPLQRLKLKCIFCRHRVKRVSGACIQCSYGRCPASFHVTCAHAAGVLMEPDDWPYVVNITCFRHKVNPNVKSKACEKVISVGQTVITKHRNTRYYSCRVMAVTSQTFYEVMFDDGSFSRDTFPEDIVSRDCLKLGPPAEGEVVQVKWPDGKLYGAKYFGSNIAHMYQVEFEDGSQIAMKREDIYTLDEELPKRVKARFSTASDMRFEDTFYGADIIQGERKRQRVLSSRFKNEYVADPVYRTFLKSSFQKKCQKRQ
smiles,measurement,setting,value
Nc1c(O)nc(O)nc1C(=O)OCC(=O)Nc1ccc(Cl)cc1[N+](=O)[O-],AC50,[1],8.98 µM (active)
Cc1c(C(=O)Nc2ccc3c(c2)OCCO3)sc2ncnc(O)c12,IC50,[2],> 32 µM (inactive)
Cc1ncc(CO)c(/C=N/CCCCCC/N=C/c2c(CO)cnc(C)c2[O-])c1[O-].[Mg+2],AC50,[3],inactive
same,AC50,[4],inactive
same,AC50,[5],inactive
same,AC50,[6],inactive
same,AC50,[7],inactive
Cc1cccc(-n2cc(CN3CCN(C(=O)c4nc[nH]n4)CC3)c(-c3cccc(F)c3)n2)c1,IC50,[8],> 79.4 µM (inactive)
same,IC50,[9],> 79.4 µM (inactive)
same,IC50,[10],> 79.4 µM (inactive)
